Laboratory results taken from patent US9896466B2 (Smart Brain S.R.O., priority 2013, dated 2018).

What was measured:
mitochondrial potential = experiment: Decrease in mitochondrial potential; type: cell-based; details: 5 μM, within 1 h
mitochondrial complex I = experiment: Respiration via mitochondrial complexes I and II, Oxygraf; type: cell-based, human; details: MCF7 cells, respiration at increasing doses
Text: Respiration (oxygen consumption linked with ATP formation) is related to 10^6 cells and is shown as a relative value with the beginning level of respiration marked with the relative value of 1.

oestrogen receptor ERα = experiment: ERα expression by real-time PCR; type: cell-based; details: 1 μM
[1] = tested on: MCF7 sublines differing in HER2 levels; experiment: Formation of reactive oxygen species (ROS); type: cell-based, human; details: 5 μM, 1 h exposure
Text: A property typically associated a number of mitocans is their ability to increase oxidative stress (formation of reactive oxygen species, ROS), selectively in cancer cells, especially associated with their action on mitochondrial complexes participating with oxidative phosphorylation. […] We tested formation of ROS also for MitoTAX.

MCF7HER2− = details: FIG. 4, survival, crystal violet
Protocol: MitoTAX prepared according to Example 6 was tested for its effect on breast cancer cell lines. Lines with different levels of HER2 protein expression and oestrogen receptor α. (ERα) were used. The cell line MCF7 features a relatively low expression of the HER2 protein. For the testing of killing of breast cancer cells with different HER2 protein levels by MitoTAX, we prepared HER2^− and HER^+ MCF7 cells. MCF7 cells were transfected with the vector with a ‘non-silencing’ sequence (NS), with a ‘short hairpin’ sequence attenuating the expression of HER2 (sh) and with the vector with a gene for HER2. […] In the subsequent work, the sublines NS, Sh1 26 (clone 26) and +11 (clone 11) were used.
The individual values were determined from the survival curves of cells at various concentrations of both substances using the crystal violet method.

SMILES	reduction of mitochondrial potential (mitochondrial potential)	concentration at which complex I is inhibited preferably to complex II (mitochondrial complex I)	reduction of ERα expression (oestrogen receptor ERα)	generation of ROS [1]	response of line with reduced HER2 expression (clone 26) (MCF7HER2−)
N#CC(C#N)=NNc1cccc(Cl)c1 [CCCP]	reduces the mitochondrial potential to its basal value				
CC/C(=C(\c1ccccc1)c1ccc(OCCN(C)C)cc1)c1ccccc1 [TAX, tamoxifen]		exceeding 20 μM	ineffective	markedly less effective	exactly opposite
